Assay results taken from patent US11564912B2, “Methods for treating irritable bowel syndrome (IBS)” (Salix Pharmaceuticals, Inc., priority 2008, dated 2023).

Experiments:
[1] = system: patients with diarrhea-predominant IBS (dIBS); test: 34-item IBS-QOL questionnaire, rifaximin 550 mg BID vs placebo; assay type: in vivo, human; set-up: key to Mean Change From Baseline in IBS-QOL Scores at Week 4: change in score on 0–100 scale, higher = better QOL; settings: for Mean Change From Baseline in IBS-QOL Scores at Week 4: Rifaximin 1100 mg/d (n = 191)
Description: Both groups received placebo for an additional 14 days after the initial 2-week treatment. Quality of life was assessed with the 34-item IBS-QOL questionnaire at baseline and 4 weeks after initiating treatment. Each item was scored on a 5-point scale (1=not at all; 2=slightly; 3=moderately; 4=quite a bit; and 5=extremely or a great deal). Results for composite and subscale scores were converted to a scale ranging from 0 to 100, with higher scores indicating better QOL.
Following a 2-week initial treatment period, both groups of patients received placebo for an additional 14 days. Quality of life was assessed via the 34-item IBS-QOL questionnaire at baseline and 4 weeks after initiating treatment. Each item was scored on a 5-point scale (1=not at all; 2=slightly; 3=moderately; 4=quite a bit; 5=extremely or a great deal); results for composite and subscale scores were converted to a scale ranging from 0 to 100, with higher scores indicating better QOL.

[2] = as previously disclosed by Applicants; cited from earlier work

(2S,16Z,18E,20S,21S,22R, 23R,24R,25S,26S,27S,28E)-5,6,21,23,25 Pentahydroxy-27-methoxy -2,4,11,16,20,22,24,26-octamethyl-2,7-(epoxypentadeca-(1,11,13)trienimino)benzofuro (4,5-e) pyrido(1,2,-a) benzimidazole-1,15(2H)-dione,25-acetate [Rifaximin]
Improvement with rifaximin over placebo, IBS-QOL at Week 4 ([1]; Body image): 37.4%
Mean Change From Baseline in IBS-QOL Scores at Week 4 ([1]; Body image): 20.1
Improvement with rifaximin over placebo, IBS-QOL at Week 4 ([1]; Dysphoria): 25.3%
Mean Change From Baseline in IBS-QOL Scores at Week 4 ([1]; Dysphoria): 24.8
Improvement with rifaximin over placebo, IBS-QOL at Week 4 ([1]; Food avoidance): 22.1%
Mean Change From Baseline in IBS-QOL Scores at Week 4 ([1]; Food avoidance): 25.0
Improvement with rifaximin over placebo, IBS-QOL at Week 4 ([1]; Health worry): 30.6%
Mean Change From Baseline in IBS-QOL Scores at Week 4 ([1]; Health worry): 16.0
Improvement with rifaximin over placebo, IBS-QOL at Week 4 ([1]; Interference with activity): 22.2%
Mean Change From Baseline in IBS-QOL Scores at Week 4 ([1]; Interference with activity): 22.2
Improvement with rifaximin over placebo, IBS-QOL at Week 4 ([1]; Overall score): 28.7%
Mean Change From Baseline in IBS-QOL Scores at Week 4 ([1]; Overall score, 14 days, scale 0 to 100): 20.4
Improvement with rifaximin over placebo, IBS-QOL at Week 4 ([1]; Relationship): 39.5%
Mean Change From Baseline in IBS-QOL Scores at Week 4 ([1]; Relationship): 14.9
Improvement with rifaximin over placebo, IBS-QOL at Week 4 ([1]; Sexual): 24.9%
Mean Change From Baseline in IBS-QOL Scores at Week 4 ([1]; Sexual): 13.6
Improvement with rifaximin over placebo, IBS-QOL at Week 4 ([1]; Social reaction): 31.6%
Mean Change From Baseline in IBS-QOL Scores at Week 4 ([1]; Social reaction): 17.3
Rifaximin exposure in healthy subjects compared with subjects having hepatic encephalopathy [2]: significantly lower
